Test results from PubChem BioAssay (NCI).
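A five-concentration, 48-hour dose response in 96-well plates underlies each endpoint, interpolated linearly between surrounding concentrations. GI50 marks 50% less growth. TGI: total growth inhibition.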

What was measured:
Assay in all cases: inhibition of tumour cell growth, NCI panel, 48 h
MDA-MB-231 breast = tested on: MDA-MB-231 breast
NCI/ADR-RES ovarian = tested on: NCI/ADR-RES ovarian
T-47D breast = tested on: T-47D breast
PC-3 prostate = tested on: PC-3 prostate
SR leukemia = tested on: SR leukemia
CCRF-CEM leukemia = tested on: CCRF-CEM leukemia
HL-60(TB) leukemia = tested on: HL-60(TB) leukemia
RPMI-8226 leukemia = tested on: RPMI-8226 leukemia
KM20L2 colon = tested on: KM20L2 colon
DMS 114 small cell lung = tested on: DMS 114 small cell lung
LXFL 529 NSCLC = tested on: LXFL 529 NSCLC
XF 498 CNS = tested on: XF 498 CNS
DLD-1 colon = tested on: DLD-1 colon

## CCN(CC)COC(=S)S
MDA-MB-231 breast
  TGI: > 100 µM
NCI/ADR-RES ovarian
  TGI: > 100 µM
T-47D breast
  TGI: > 100 µM
PC-3 prostate
  TGI: > 100 µM
SR leukemia
  TGI: 25.9 µM

## Cn1c2c3c(F)c(F)ccc3nc-2cc2ccccc21
MDA-MB-231 breast
  TGI: 20.8 µM
NCI/ADR-RES ovarian
  TGI: 7.68 µM
CCRF-CEM leukemia
  TGI: 28 µM
HL-60(TB) leukemia
  TGI: 56.6 µM
RPMI-8226 leukemia
  TGI: 11.5 µM
T-47D breast
  TGI: 4.39 µM
PC-3 prostate
  TGI: 19.4 µM
SR leukemia
  TGI: > 100 µM

## CCN(CC)CCNc1ccc2nnn3c4ccccc4c(=O)c1c23
KM20L2 colon
  TGI: 15.1 µM
DMS 114 small cell lung
  TGI: 24.2 µM
LXFL 529 NSCLC
  TGI: 21.8 µM
XF 498 CNS
  TGI: 13.6 µM
CCRF-CEM leukemia
  TGI: 18.7 µM
HL-60(TB) leukemia
  TGI: 8.59 µM
RPMI-8226 leukemia
  TGI: > 24.2 µM
DLD-1 colon
  TGI: 42.2 µM
SR leukemia
  TGI: 5.44 µM

## C[N+](C)([O-])Cc1cc(-c2ccccc2)ccc1O
MDA-MB-231 breast
  TGI: > 100 µM
NCI/ADR-RES ovarian
  TGI: > 100 µM
T-47D breast
  TGI: > 100 µM
PC-3 prostate
  TGI: > 100 µM
SR leukemia
  TGI: > 100 µM

## O=c1nc2sc3ccc4ccccc4c3n2[nH]c1=O
KM20L2 colon
  TGI: 99 µM
DMS 114 small cell lung
  TGI: > 100 µM
LXFL 529 NSCLC
  TGI: > 100 µM
CCRF-CEM leukemia
  TGI: > 100 µM
HL-60(TB) leukemia
  TGI: > 100 µM
DLD-1 colon
  TGI: > 100 µM

## COC(=O)c1cc(C)n(CN(Cc2ccccc2)Cn2nc(C(=O)OC)cc2C)n1
MDA-MB-231 breast
  TGI: > 100 µM
NCI/ADR-RES ovarian
  TGI: > 100 µM
CCRF-CEM leukemia
  TGI: > 67.6 µM
RPMI-8226 leukemia
  TGI: > 62.9 µM
T-47D breast
  TGI: > 100 µM
PC-3 prostate
  TGI: > 100 µM

## NC(=O)C(Nc1ccc(Cl)cc1)c1cc2cc(Br)ccc2nc1Cl (stereo not given)
MDA-MB-231 breast
  TGI: > 50 µM
NCI/ADR-RES ovarian
  TGI: > 50 µM
CCRF-CEM leukemia
  TGI: > 50 µM
HL-60(TB) leukemia
  TGI: > 50 µM
RPMI-8226 leukemia
  TGI: > 50 µM
T-47D breast
  TGI: > 50 µM
PC-3 prostate
  TGI: > 50 µM
SR leukemia
  TGI: > 50 µM

## Cc1cc(C)n(CN(Cn2nc(C)cc2C)c2ccccc2)n1
MDA-MB-231 breast
  TGI: > 100 µM
NCI/ADR-RES ovarian
  TGI: 57.7 µM
CCRF-CEM leukemia
  TGI: 83.9 µM
HL-60(TB) leukemia
  TGI: 27.3 µM
RPMI-8226 leukemia
  TGI: 47.6 µM
T-47D breast
  TGI: > 100 µM
PC-3 prostate
  TGI: > 100 µM
SR leukemia
  TGI: 14.9 µM

## CCN(CC)CCNc1ccc(C)c2sc3ccccc3c(=O)c12
MDA-MB-231 breast
  TGI: 7.96 µM
NCI/ADR-RES ovarian
  TGI: 16.9 µM
CCRF-CEM leukemia
  TGI: 8.04 µM
HL-60(TB) leukemia
  TGI: 3.85 µM
RPMI-8226 leukemia
  TGI: 4.37 µM
T-47D breast
  TGI: 19.4 µM
PC-3 prostate
  TGI: 11.2 µM
SR leukemia
  TGI: 6.58 µM

## CC(=O)N/C(=C\c1ccc(/C=C(\NC(C)=O)C2=NC3C(=O)c4ccccc4C(=O)C3N2)cc1)C1=NC2C(=O)c3ccccc3C(=O)C2N1 (stereo not given)
KM20L2 colon
  TGI: > 100 µM
DMS 114 small cell lung
  TGI: > 100 µM
LXFL 529 NSCLC
  TGI: > 100 µM
XF 498 CNS
  TGI: > 100 µM
CCRF-CEM leukemia
  TGI: 86.4 µM
HL-60(TB) leukemia
  TGI: > 100 µM
RPMI-8226 leukemia
  TGI: > 100 µM
DLD-1 colon
  TGI: > 100 µM

## CC1=CC(C)(C)Nc2ccc(CSc3ccccc3)cc21
MDA-MB-231 breast
  TGI: 94.1 µM
NCI/ADR-RES ovarian
  TGI: > 100 µM
RPMI-8226 leukemia
  TGI: 31.2 µM
PC-3 prostate
  TGI: 89.8 µM

## O=C1C(Cl)C(c2cc3cc(Br)ccc3nc2Cl)N1c1c(Cl)cccc1Cl (stereo not given)
MDA-MB-231 breast
  TGI: > 25 µM
NCI/ADR-RES ovarian
  TGI: > 25 µM
CCRF-CEM leukemia
  TGI: 20 µM
HL-60(TB) leukemia
  TGI: > 25 µM
RPMI-8226 leukemia
  TGI: 23 µM
T-47D breast
  TGI: > 25 µM
PC-3 prostate
  TGI: > 25 µM
SR leukemia
  TGI: 10.7 µM

## CC[C@@H](/C=C\CCC1(C[C@@H](N)CCC=C(C)C)OCCO1)O[Si](C(C)C)(C(C)C)C(C)C
MDA-MB-231 breast
  TGI: 33.6 µM
NCI/ADR-RES ovarian
  TGI: 33.9 µM
CCRF-CEM leukemia
  TGI: 58.7 µM
HL-60(TB) leukemia
  TGI: 23 µM
RPMI-8226 leukemia
  TGI: 38 µM
T-47D breast
  TGI: 48.7 µM
PC-3 prostate
  TGI: 29.6 µM
SR leukemia
  TGI: 14.5 µM

## O=C(O)c1nccnc1C(=O)O
KM20L2 colon
  TGI: > 100 µM
DMS 114 small cell lung
  TGI: > 100 µM
LXFL 529 NSCLC
  TGI: > 100 µM
XF 498 CNS
  TGI: > 100 µM
CCRF-CEM leukemia
  TGI: > 100 µM
HL-60(TB) leukemia
  TGI: > 100 µM
RPMI-8226 leukemia
  TGI: > 100 µM
DLD-1 colon
  TGI: > 100 µM
SR leukemia
  TGI: > 100 µM

## O=[As](O)(O)c1ccc2nc3cc([As](=O)(O)O)ccc3nc2c1
MDA-MB-231 breast
  TGI: > 100 µM
NCI/ADR-RES ovarian
  TGI: > 100 µM
T-47D breast
  TGI: > 100 µM
PC-3 prostate
  TGI: > 100 µM
SR leukemia
  TGI: > 100 µM

## CCCCCCCCCCCCCCCC(=O)OC1C(O)C(CO)OC(OC)C1NC(=O)N(CCCl)N=O (stereo not given)
KM20L2 colon
  TGI: 32.4 µM
DMS 114 small cell lung
  TGI: 28 µM
LXFL 529 NSCLC
  TGI: 25.1 µM
XF 498 CNS
  TGI: 30.8 µM
RPMI-8226 leukemia
  TGI: > 100 µM
DLD-1 colon
  TGI: 31.5 µM
SR leukemia
  TGI: 23.7 µM

## C=CCc1cccc(/C=N\N=C(/N)NO)c1O
KM20L2 colon
  TGI: 31.8 µM
DMS 114 small cell lung
  TGI: 12.9 µM
XF 498 CNS
  TGI: 9.65 µM
NCI/ADR-RES ovarian
  TGI: > 29.3 µM
CCRF-CEM leukemia
  TGI: > 27 µM
HL-60(TB) leukemia
  TGI: > 21.4 µM
RPMI-8226 leukemia
  TGI: 14.6 µM
DLD-1 colon
  TGI: > 100 µM

## CN(C)C(=O)C1CCN(Cc2c[nH]c3ccccc23)CC1
MDA-MB-231 breast
  TGI: > 100 µM
NCI/ADR-RES ovarian
  TGI: > 100 µM
HL-60(TB) leukemia
  TGI: > 100 µM
RPMI-8226 leukemia
  TGI: > 100 µM
T-47D breast
  TGI: > 100 µM
PC-3 prostate
  TGI: > 100 µM
SR leukemia
  TGI: > 100 µM

## Nc1ccccc1N=Nc1c(S(=O)(=O)O)cc2cc(S(=O)(=O)O)cc(O)c2c1O
MDA-MB-231 breast
  TGI: > 100 µM
NCI/ADR-RES ovarian
  TGI: > 100 µM
CCRF-CEM leukemia
  TGI: > 100 µM
RPMI-8226 leukemia
  TGI: > 100 µM
T-47D breast
  TGI: > 100 µM
PC-3 prostate
  TGI: > 100 µM
SR leukemia
  TGI: > 100 µM

## O=C(/C=C/c1ccc(O)c(O)c1)NCCc1ccc(-c2ccccc2)cc1
NCI/ADR-RES ovarian
  TGI: > 100 µM
CCRF-CEM leukemia
  TGI: > 100 µM
HL-60(TB) leukemia
  TGI: > 100 µM
RPMI-8226 leukemia
  TGI: > 100 µM
T-47D breast
  TGI: > 100 µM
PC-3 prostate
  TGI: > 100 µM

## CCOC(=O)NC(Nc1ccc(Cl)cn1)(C(F)(F)F)C(F)(F)F
MDA-MB-231 breast
  TGI: > 100 µM
CCRF-CEM leukemia
  TGI: > 100 µM
HL-60(TB) leukemia
  TGI: > 100 µM
RPMI-8226 leukemia
  TGI: > 100 µM
T-47D breast
  TGI: > 100 µM
SR leukemia
  TGI: > 100 µM

## CC(C)CN(CC#N)CC(C)C
MDA-MB-231 breast
  TGI: > 100 µM
NCI/ADR-RES ovarian
  TGI: > 100 µM
HL-60(TB) leukemia
  TGI: > 100 µM
RPMI-8226 leukemia
  TGI: > 100 µM
T-47D breast
  TGI: > 100 µM
PC-3 prostate
  TGI: > 100 µM

## Cc1c2c(ccc3ccccc32)c[n+]2ccccc12
KM20L2 colon
  TGI: 77 µM
DMS 114 small cell lung
  TGI: 19.8 µM
LXFL 529 NSCLC
  TGI: 28.3 µM
CCRF-CEM leukemia
  TGI: 36.5 µM
HL-60(TB) leukemia
  TGI: 68.5 µM
RPMI-8226 leukemia
  TGI: > 100 µM
DLD-1 colon
  TGI: > 100 µM
SR leukemia
  TGI: 23.3 µM

## Cn1c(-c2ccc(N=NNc3ccc(-c4n[nH]c(=S)n4C)cc3)cc2)n[nH]c1=S
MDA-MB-231 breast
  TGI: 43.4 µM
NCI/ADR-RES ovarian
  TGI: > 100 µM
CCRF-CEM leukemia
  TGI: > 100 µM
HL-60(TB) leukemia
  TGI: > 100 µM
T-47D breast
  TGI: 8.28 µM
PC-3 prostate
  TGI: > 100 µM
SR leukemia
  TGI: > 100 µM

## Cc1ccc(-c2cc(-c3c(C)nn(C)c(=O)c3N)[nH]n2)cc1
MDA-MB-231 breast
  TGI: > 100 µM
NCI/ADR-RES ovarian
  TGI: > 100 µM
CCRF-CEM leukemia
  TGI: > 100 µM
HL-60(TB) leukemia
  TGI: > 100 µM
RPMI-8226 leukemia
  TGI: > 100 µM
T-47D breast
  TGI: > 100 µM
PC-3 prostate
  TGI: > 100 µM
SR leukemia
  TGI: > 100 µM

## Cc1ccc(C2CC(c3cccc(Nc4ccncc4)c3)=NN2c2ccccc2)cc1 (stereo not given)
CCRF-CEM leukemia
  GI50: 3.95 µM
  TGI: 77.9 µM
T-47D breast
  GI50: 2.02 µM
  TGI: 4.85 µM
PC-3 prostate
  GI50: 1.59 µM
  TGI: 3.24 µM
SR leukemia
  GI50: 2.07 µM
  TGI: 5.73 µM

## [O-][n+]1c(-c2ccccc2)c2nc3ccccc3nc2c2ccccc21
KM20L2 colon
  TGI: > 100 µM
DMS 114 small cell lung
  TGI: > 100 µM
LXFL 529 NSCLC
  TGI: 93.9 µM
XF 498 CNS
  TGI: > 100 µM
CCRF-CEM leukemia
  TGI: > 100 µM
RPMI-8226 leukemia
  TGI: > 100 µM
DLD-1 colon
  TGI: > 100 µM

## O=C(O)Cn1c2c(c3c(O)cccc31)C(=O)c1ccccc1-2
MDA-MB-231 breast
  GI50: > 100 µM
  TGI: > 100 µM
NCI/ADR-RES ovarian
  GI50: > 100 µM
  TGI: > 100 µM
CCRF-CEM leukemia
  GI50: > 100 µM
  TGI: > 100 µM
HL-60(TB) leukemia
  GI50: > 100 µM
  TGI: > 100 µM
T-47D breast
  GI50: > 100 µM
  TGI: > 100 µM
